Results published in patent US8088602B1, “Manipulation of RNA stability and protein synthesis using thio-phosphate” (priority 2001, dated 2012).

Legend:
lipase = assay: Secreted lipase of yeast, qualitative assays; type: cell-based
Protocol: (§1) An additional assay was developed to examine the effects of thio-phosphate media on the synthesis of secreted proteins. Yeast excrete many extracellular hydrolases and the mRNAs for […] adenine, histidine, leucine, lysine, and uracil (Sp, BIO101). Various S. cerevisiase strains are able to grow in minimal media containing thio-phosphate: multiploid fleischmann's yeast strain, haploid strain ATTC# 32119, and diploid strain BJ3505 (Sigma). The haploid strain Pichia canadensis ATTC# 14355 grew better with a yeast nitrogen based media (YNB, BIO 101) as opposed to EMM. Note that the optimal level of total phosphate for yeast is ˜1 g/L which is much less than that for bacteria. Again if necessary to improve growth use nutrient broths depleted of phosphate (see below).
The mRNA is in the size range expected for a mature mRNA in which the intron sequences have been removed (FIG. 1). […] The actin probe is prepared by amplification of yeast genomic DNA (act), YFL039C, Saccharomyces Genome Database http://genome-www2.standford.edu) with the following PCR primers: • SEQ ID NO. 1: 5′ GAGGTTGCTGCTTTGGTTATTG 3′ 22 bp • SEQ ID NO. […] The probe is hybridized according to S&S protocols and detected by chemilumescence using polaroid film. […] Extracellular nucleases are detected by monitoring the degradation of genomic DNA by gel electrophoresis.

beta-galactosidase = assay: Recombinant beta-galactosidase colormetric assay (X-gal) in bacterial cells; type: cell-based; conditions: for effect on beta-galactosidase enzyme activity: 2% lactose minimal media
Protocol: A recombinant vector containing the beta-galactosidase gene (Promega's TA vector expressed from an SP6 promoter) can also be examined. Enzyme activity is detected via a colormetric assay. Cells are grown in minimal media made with 2% lactose rather than glucose for optimal induction of beta-galactosidase. After several (˜4-5) hrs bacterial cells are removed to assay for enzyme activity. To 0.5 ml of cells add 0.5 ml of 200 mM Tris-HCL, pH 7.5 and 5 ul of 1% SDS (sodium dodecyl sulfate). Then add 10 ul of IPTG (100 mM) and 20 ul of X-gal (50 mg/ml), mix and incubate at 37° C. […] In the presence of glucose which represses the enzyme, the activity is much lower but can be enhanced 10 fold by using a 50% ratio of thio-phosphate to phosphate.

S. cerevisiae = assay: Growth in phosphate depleted YPD media with thio-phosphate/phosphate ratios; type: cell-based; conditions: phosphate levels ~1 g/L, full range of ratios (100% to 0%)
Protocol: (§2) The stabilization of RNA by growth in thio-phosphate media can be used to enhance the protein synthesis of many proteins. The optimal level of thio-phosphate to phosphate must be determined as well absolute levels of total phosphate that are tolerable. Growth in all cases is enhanced by using enriched media prepared by depleting inherent phosphate. To deplete phosphate by precipitation, MgSO4 and ammonium hydroxide are added to the media of choice. YPD (1% Bacto-yeast extract, 2% Bacto-peptone, 2% Dextrose) phosphate depleted media is prepared by adding 10 ml of 1 M MgSO4 and 10 ml of concentrated NH4OH per liter and allowing the ppt. to form by leaving the solution at room temp. for 30 min. The media is then filtered and the pH readjusted to pH 6.5. Using this procedure, the detectable amount of ortho-phosphate remaining is less than ˜200 mg/liter. […] It is best to innoculate at high densities using, for example a 1:20 dilution. Insufficient innoculum (low density) will result in poor growth.

Pichia canadensis = assay: as above; type: cell-based; conditions: phosphate levels ~1 g/L, full range of ratios (100% to 0%)
Protocol: as §2

DNA of intestinal cells = assay: DNase resistance of intestinal DNA from fish kept in thio-phosphate media; type: in vivo, Carassius auratus; conditions: 0.5 units DNase, room temp.
Protocol: (§3) Thio-phosphate can also be utilized by whole animals and/or complex tissues. Carassius auratus incorporates thio-phosphate into the DNA of intestinal cells; these cells are known to turnover in adults. Fish can be maintained in distilled water with NovAqua and AmQuel conditioners (U.S. Pat. No. 4,666,610). Goldfish flakes are also added for food. Normal phosphate levels in the aquarium are less than 1 mg/L (Hanna Phosphate Test Kit; Hanna Instruments). Fish are transferred to 100 ml of conditioned media with up to 250 mg/L of thio-phosphate added. […] Fresh media is prepared daily. Fish are sacrificed and DNA prepared from intestinal cells using DNAzol™ (Molecular Research Center Ohio). The DNA samples are then tested for resistance to DNase digestion. Samples are incubated in a 50 ul rxn with ˜lug of DNA and 0.5 units of DNase for 0, 5, 10, 15 min. at room temp. DNA from 250 mg/L thio-phosphate media is much more resistant than wildtype DNA or DNA from 25 mg/L thio-phosphate media. Normal DNA and 25 mg/L thio-phosphate treated DNA is digested after 5 min. while 250 mg/L thio-phosphate treated DNA persists beyond 15 min. of digestion (FIG. 3).

[1] = system: pFLAG-ATS-BAP (bacterial alkaline phosphatase) expression in JM109; assay: Bacterial expression of pFLAG-ATS-BAP, colormetric staining of whole cells (NBT/BCIP); type: cell-based, bacterial cells (JM109)
Protocol: Bacterial expression can be examined using the recombinant vector pFLAG-ATS-BAP (Sigma Chemical; U.S. Pat. Nos. 4,703,004, 4,782,137 EP Patent 150126, and JP Patent 1983150) marked with bacterial alkaline phosphatase and under the control of a tac/lac hybrid promoter induced by IPTG. This control plasmid is expressed in the periplasmic fraction by virtue of the N-terminal OmpA signal at high levels. Enzyme activity is easily visualized using colormetric staining of whole cells. 0.5 ml of cells are pelleted and resuspended in pH 9.5 buffer (0.1 M Tris-HCL, 0.1 M NaCL, 50 mM MgCl2) along with 10 ul of NBT (nitroblue tetrazolium, 50 mg/ml) and 5 ul of BCIP (5-bromo-4-chloro-3-indolylphosphate, 50 mg/ml). After sufficient time (there may be a slight delay in the activity of induced cells) the samples are compared and then centrifuged to compare pellets. Various ratios of modified phosphate to phosphate are examined: 0%, 10%, 15%, 20%, 25%, 30%, 40%, 50%, 60, 70%, 80%, 90% and 100%. […] To determine the optimal ratio a lower level of lactose is used in the media to prevent the formation of inclusion bodies during the analysis (M9 minimal media made with 0.1% rather than 0.5% lactose, total phosphate levels of 10 g/L). […]

Extracellular nucleases = assay: Extracellular nuclease activity of yeast (degradation of genomic DNA by gel electrophoresis); type: cell-based
Protocol: as §1
The mRNA is in the size range expected for a mature mRNA in which the intron sequences have been removed (FIG. 1). […] The actin probe is prepared by amplification of yeast genomic DNA (act), YFL039C, Saccharomyces Genome Database http://genome-www2.standford.edu) with the following PCR primers: • SEQ ID NO. 1: 5′ GAGGTTGCTGCTTTGGTTATTG 3′ 22 bp • SEQ ID NO. 2: 5′ TTGTGGTGAACGATAGATGGAC 3′ 22 bp PCR cycling parameters using a BIO-RAD thermal cycler and Taq polymerase are as follows: initial denaturation at 94° C. for 4 min. followed by 33 cycles of denaturation at 94° C. for 30 sec, annealing at 45° C. for 30 sec, elongation at 72° C. for 3 min. followed by a final elongation at 72° C. for 7 min. […] Total RNA (˜0.5 ug) is separated on a 2% high resolving agarose gel and transferred to a neutral nylon membrane. The probe is hybridized according to S&S protocols and detected by chemilumescence using polaroid film. […] Extracellular nucleases are detected by monitoring the degradation of genomic DNA by gel electrophoresis.

yeast actin mRNA = assay: Northern analysis of actin mRNA in yeast grown in thio-phosphate media; type: cell-based, S. cerevisiae; conditions: 100% thio-phosphate substituted media; ~0.5 ug total RNA
Protocol: To maximize mRNA levels cells are grown in minimal media substituted with 100% thio-phosphate. Bacteria and yeast grow quite well in such media. For E. coli minimal media is prepared as follows: (Na3SPO3.XH2O) 10-15 g/L and KCL (1.5 g/L) (NH4)2SO4, 1 g/L; sodium citrate 2H2O, 0.5 g/L; Adjust pH to 7.4 and sterile filter. Then add the following: MgSO4.7H2O, 0.2 g/L (sterilized separately as a conc. solution); (thiamine HCL, 5 ug/L; glucose, 4 g/L sterilized separately by filtration). Glucose can also be sterilized by autoclaving separately. FeCl2 (500 ug/L) can also be added as needed. Thio-phosphate contains variable amounts of water (10-15 per molecule) not included in molecular weight calculations. It is almost 50% water by weight. Note pH control is important in maximizing thio-phosphate stability. […] When adapting to other bacteria determine the sensitivity of the organism to thio-phosphate levels. Optimize for KCL as this often is provided as a salt of normal phosphate. […]
The mRNA is in the size range expected for a mature mRNA in which the intron sequences have been removed (FIG. 1). […] The probe is hybridized according to S&S protocols and detected by chemilumescence using polaroid film. […] Extracellular nucleases are detected by monitoring the degradation of genomic DNA by gel electrophoresis.

[2] = system: YEpFLAG-1-BAP (bacterial alkaline phosphatase) expression in yeast cells (BJ3505 strain); assay: Recombinant FLAG-tagged secreted bacterial alkaline phosphatase synthesis in yeast (immuno test strips, dilution assays); type: cell-based, S. cerevisiae
Protocol: as §2
To test for optimal protein synthesis conditions the following system can be used: a recombinant YEp plasmid containing a secreted bacterial alkaline phosphatase gene (YEpFLAG-1-BAP, Sigma; U.S. Pat. Nos. 4,703,004, 4,782,137 EP Patent 150126, and JP Patent 1983150) marked with the FLAG™ peptide DYKDDDDK. […]

yeast = assay: Soluble protein levels, biuret reagent, yeast; type: cell-based; conditions: low ratios of thio-phosphate to phosphate (10-30%)
Protocol: (§4) At higher ratios a slight decline in growth appears to account for a reduction in total protein synthesis detected. To measure protein synthesis 4 ml of cells are pelleted washed in PBS and resuspended in lysozyme solution for bacteria. Cells are then pelleted again and washed in PBS to remove lysozyme. Cells are then lysed in 400 ul of 1% SDS and 0.2 N NaOH. The extract is then diluted in water to 2 ml and assayed using the biuret reagent (Gornall et al (1949) J. Biol. Chem. 177:751). Yeast are assayed without lysozyme.

bacteria = assay: Soluble protein levels, biuret reagent, bacteria; type: cell-based; conditions: low ratios of thio-phosphate to phosphate (10-30%)
Protocol: as §4

Carassius auratus = assay: Tolerance of fish kept in conditioned media with thio-phosphate; type: in vivo; conditions: up to 250 mg/L of thio-phosphate in conditioned media, two days
Protocol: as §3

## [Na+].[Na+].[Na+].[O-]P([O-])([O-])=S [thio-phosphate, Na3SPO3.XH2O]
lipase
  increase of lipase: less than two fold
beta-galactosidase; higher ratios (50-70%)
  effect on beta-galactosidase enzyme activity: recovers from inhibition
beta-galactosidase; in the presence of glucose, 50% ratio of thio-phosphate to phosphate
  enhancement of beta-galactosidase activity: 10 fold
beta-galactosidase; low ratios of thio-phosphate to phosphate (5-30%)
  effect on beta-galactosidase enzyme activity: inhibited
S. cerevisiae
  growth: adequate growth
Pichia canadensis
  growth: adequate growth
DNA of intestinal cells; 25 mg/L thio-phosphate media
  time after which DNA is digested by DNase: ≤ 5 min
DNA of intestinal cells; 250 mg/L thio-phosphate media
  time DNA persists under DNase digestion: > 15 min
[1]; 50% ratio, low lactose levels
  BAP activity elevated over controls: several fold
[1]; low lactose (0.1%) M9 minimal media, total phosphate 10 g/L
  optimal ratio of modified phosphate to phosphate for BAP enzyme activity: 50%
Extracellular nucleases; 10% ratio of thio-phosphate to phosphate
  increase of extracellular nuclease activity: two to three fold increase
Extracellular nucleases; ratios above 70%
  effect on extracellular nuclease activity: slightly inhibitory
Extracellular nucleases; ratios beyond 30%
  effect on extracellular nuclease activity: not stimulatory
Yeast actin mRNA
  stabilization of actin mRNA: significant stabilization
[2]; weight equivalent ratio, grown overnight, following cessation of growth, ratios 100-0 tested
  ratio of thio-phosphate to normal phosphate at which maximal synthesis occurs: ~10%
[2]; ~10% ratio, dilution assays
  increase of FLAG-BAP protein compared to normal media with an equivalent amount of phosphate: about ten fold
yeast
  soluble protein levels: not enhanced
bacteria
  soluble protein levels: not enhanced
Carassius auratus
  adverse reactions in fish: No adverse reactions
